According to PubChem BioAssay (NCI):
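Growth conditions: 96-well plates. Treatment: test compound, 48 hours, 5 concentrations. Analysis: linear interpolation between bracketing concentrations; unreached endpoints set to highest concentration. At the TGI there is no net growth.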

Key:
Assay in all cases: NCI-60 cell line screen, 48 h
[1] = system: SK-MEL-28 melanoma
[2] = system: NCI-H226 lung
[3] = system: K-562 leukemia
[4] = system: SF-268 CNS
[5] = system: SF-295 CNS
[6] = system: NCI-H460 lung
[7] = system: UO-31 renal
[8] = system: NCI/ADR-RES ovarian
[9] = system: OVCAR-5 ovarian
[10] = system: SK-MEL-2 melanoma
[11] = system: A498 renal
[12] = system: U251 CNS
[13] = system: HOP-62 NSCLC
[14] = system: HCC-2998 colon
[15] = system: SF-539 CNS
[16] = system: HS 578T breast

Compound | TGI [1] [µM] | TGI [2] [µM] | TGI [3] [µM] | TGI [4] [µM] | TGI [5] [µM] | TGI [6] [µM] | TGI [7] [µM] | TGI [8] [µM] | TGI [9] [µM] | TGI [10] [µM] | TGI [11] [µM] | TGI [12] [µM] | TGI [13] [µM] | TGI [14] [µM] | TGI [15] [µM] | TGI [16] [µM]
O=[N+]([O-])/C(C(Cl)=C(Cl)Cl)=C1\Nc2ccc([N+](=O)[O-])cc2N1 | > 100 | > 100 | > 100 | > 100 | > 100 | > 100 | 27.5 | > 100 | > 100 | > 100 | > 100 | > 100 | > 100 |  |  | 
O=S(=O)(O)CCSSCCS(=O)(=O)O | > 1000 | > 1000 | > 1000 | > 1000 | > 1000 | > 1000 | > 1000 | > 1000 | > 1000 | > 1000 | > 1000 | > 1000 | > 1000 | > 1000 | > 1000 | 
NCC(Cl)C(O)c1cnc(N)[nH]1 (stereo not drawn) | > 76.6 | 17.6 | > 100 | > 73.8 | 52.6 | > 44.1 | 6.38 | > 100 | 20.6 | 18.3 | 1.01 | > 100 | 5.98 | 5.12 | 5.85 | 
CCN(CC)C(=O)c1cc(OC(C)C)ccc1-c1c(C)cc(OC(C)C)c(OC)c1OC | > 100 | > 100 | > 100 | > 100 |  | > 100 | > 100 |  | > 100 | > 100 |  | > 100 | > 100 | > 100 | > 100 | 
CN(CCC(=O)N1CC(CCl)c2ccc([N+](=O)[O-])cc21)CCC(=O)N1CC(CCl)c2ccc([N+](=O)[O-])cc21 (stereo not drawn) | 28.9 | > 100 | 47.7 | 28.5 | 39.5 | > 100 |  |  | > 100 | 26 | 35.3 | > 100 | > 100 | 18.2 | 27.7 | 17.7
CC(=O)OC1C=C(C=O)C(O)(C=O)C2(C)CCCC(C)(C)C12 (stereo not drawn) | 3.42 | 4.62 | 1.73 | 5.35 | 6.31 | 4.21 | 5.66 | 5.57 | 8.16 | 6.81 | 2.31 | 7.39 | 14.6 | 5.75 | 5.74 | 
CCOC(=O)/C=C/CC(C)(C)COC(C)=O | > 10 | > 10 | > 10 | > 10 | > 10 | > 10 | > 10 | > 10 | > 10 | > 10 |  |  |  | > 10 |  | > 10
O=C(/C=C/c1cccc([N+](=O)[O-])c1)N1CCN(CCOC(c2ccccc2)c2ccccc2)CC1 | 64.2 |  | 50.7 |  | > 100 | > 100 | > 100 | > 100 | > 100 |  | > 100 |  | > 100 | 55.2 |  | 
C=C(C)C1CC=C(C)C(=O)C1 (stereo not drawn) | > 100 | > 100 | > 100 | > 100 | > 100 | > 100 | > 100 | > 100 | > 100 | > 100 |  | > 100 | > 100 | > 100 | > 100 | > 100
COc1cc(C2C3=C(COC3=O)OC(C)(C)Oc3cc4c(cc32)OCO4)cc(OC)c1O (stereo not drawn) | > 100 |  | > 20.3 | > 100 |  | > 100 | > 100 |  | > 100 | > 100 | 68 | > 100 | > 100 | 7.88 |  | > 100
Cc1c2c(cc3c1C(=O)C(=O)C([C@@H](C)CO)=C3O)C(C)(C)CCC2 | > 100 | > 100 | > 100 | > 100 | > 100 |  | 38.6 | > 100 | > 100 | 47.2 | 98.9 | 53.8 | > 100 |  |  | > 100
Cc1ccc(-c2c(C#N)c(-c3ccccc3)n(NS(=O)(=O)c3ccc(C)cc3)c(=O)c2C#N)cc1 | > 100 | > 100 | > 100 | > 100 | > 100 | > 100 |  | > 100 | > 100 | > 100 | > 100 | > 100 | > 100 | > 100 | > 100 | 
CC1(C)C2CC(O)C1(C)CC2=O (stereo not drawn) | 14.8 | > 100 | > 100 | > 100 | > 100 | > 100 | > 100 | > 100 | > 100 |  |  | > 100 | > 100 | > 100 | > 100 | > 100
CC(C)=CCc1c(O)cc(O)c2c1OC(c1ccc(O)cc1)C(O)C2=O (stereo not drawn) | 50.7 | 56.7 | > 100 | > 100 | 67 | 77.3 | 90.4 |  | 61.1 | 50.9 | > 100 | 74.5 | 36.3 | 56.3 | 35.5 | 
Cc1cccc2nc(-c3ccccc3)cc(=O)n12 | > 100 | > 100 | > 100 | > 100 | > 100 | > 100 |  | > 100 | > 100 |  |  | > 100 | > 100 | > 100 | > 100 | > 100
O=C(CP(=O)(c1ccccc1)c1ccccc1)c1cccc(C(=O)CP(=O)(c2ccccc2)c2ccccc2)c1 | > 100 | > 100 | > 100 | > 100 | 30 | > 100 | > 100 | > 100 | > 100 | > 100 |  |  | > 100 | > 100 | > 100 | 57.9
CC(=O)OC1=NN=C2COC(c3ccccc3OC(C)=O)=NN2C1 | > 50 |  | > 50 | > 50 | > 50 | > 50 | > 50 | > 50 | > 50 | > 50 |  | > 50 | > 50 | > 50 | > 50 | > 50
Cc1[nH]c(=O)[nH]c(=O)c1/C=C/C(=O)NC(CO)CC(C)C (stereo not drawn) | > 375 | > 375 | > 237 | > 375 | > 375 | > 187 | > 375 | > 375 | > 375 | > 375 | > 375 | > 375 | > 375 | > 375 | > 375 | 
NC(CSS(=O)(=O)O)=NC1CC2CCC1C2 (stereo not drawn) | > 100 | > 100 | > 100 | > 100 | > 100 | > 100 |  | > 100 |  | > 100 | > 100 | > 100 | > 100 |  | > 100 | > 100
CCCCNC(=S)Nc1nc(C(=O)NNC(=S)NCC)cs1 |  |  |  | > 100 | > 100 |  | > 100 | > 100 | > 100 | > 100 | > 100 | > 100 | > 100 | > 100 | > 100 | 
C1=C(CC2=C[P+](c3ccccc3)(c3ccccc3)C=C(c3ccccc3)O2)OC(c2ccccc2)=C[P+]1(c1ccccc1)c1ccccc1 | 2.02 |  |  | 1.61 | 1.84 | 2.03 | 2.94 | 66.7 | 2.39 |  | 2.09 | 1.23 | 1.88 |  | 1.36 | 
CCC1CN2CCc3cc(OC)c(OC)cc3C2CC1CC1c2cc(OC)c(OC)cc2CCN1C(=O)C(N)Cc1ccccc1 (stereo not drawn) | 10.3 |  | 1.93 | 13.7 | 10.3 | 9.23 | 5.85 |  | 9.55 | 6.1 | 11 | 5.97 | 7.78 | 5.66 | 7.48 | 
CC(C)(C)c1cc(S(=O)(=O)O)c2oc(-c3ccccc3)cc(=O)c2c1 | > 100 | > 100 | > 100 | > 100 | > 100 | > 100 | > 100 | > 100 |  |  |  | > 100 | > 100 | > 100 | > 100 | > 100
COc1ccc(C2C(C(=O)O)=C(CO)Oc3cc4c(cc32)OCO4)cc1 (stereo not drawn) | > 100 |  |  |  | > 100 | > 100 | > 100 |  |  | > 100 |  | > 100 | > 100 |  |  | 
NCc1ccc(-c2ccc(CN)s2)s1 | > 100 | > 100 | > 100 |  | > 100 |  | > 100 | 83.6 | > 100 | > 100 | 23.1 | > 100 | > 100 | > 100 | > 100 | 
CC12CCCC(C(=O)O)(C1)[C@H](C(C)(C)C(=O)O)CC2 (stereo partly drawn) | > 100 | > 100 | > 100 | > 100 | > 100 | > 100 | > 100 | > 100 | > 100 | > 100 |  | > 100 | > 100 |  |  | > 100
